Test results: patent US9708330B2, “2,3-dihydroimidazol[1,2-C]pyrimidin-5(1-H)-one based ipoprotein-associated phospholipase A2 (Lp-PLA2) inhibitors” (GlaxoSmithKline Intellectual Property Development Limited, priority 2013, dated 2017)

Key:
[1] = system: splenic macrophages and CNS infiltrating macrophages; assay: Ex vivo analysis of M1 and M2 markers in macrophages of EAE rats by realtime PCR; design: species or system rat; details: macrophages of compound treated EAE rats, day 13 post MBP-immunization
Method: Ex vivo analysis of proinflammatory (M1) and anti-inflammatory (M2) markers in control and compound treated EAE rats. Splenic macrophages were harvested at day 13 post MBP-immunization and assayed for expression of a variety of markers by realtime PCR. CNS infiltrating cells were harvested and macrophages were analyzed for expression of M1 and M2 markers by realtime PCR.

rat EAE model = assay: Rat experimental autoimmune encephalomyelitis (EAE) model, preventive treatment; type: in vivo
Method: A further study was carried out to study the impact of Lp-PLA2 inhibitors on modulating M1/M2 imbalance. In this study, rats were induced to develop experimental autoimmune encephalomyelitis (EAE) by immunization with myelin basic protein (MBP) antigen and treated with a known Lp-PLA2 inhibitor: 5-((9-Methoxy-4-oxo-6,7-dihydro-4H-pyrimido[6,1-a]isoquinolin-2-yl)oxy)-2-(3-(trifluoromethyl)phenoxy)benzonitrile (See PCT application no. PCT/CN2011/001597). In this preventive treatment model, the compound was administered at day 0 (day of immunization) and continued to administer until day 22. The study lasted for 25 days. Rats were subsequently monitored for symptoms of EAE. Rats were immunized with MBP to develop EAE and symptoms were monitored daily. Plasma Lp-PLA2 activity, OxLDL, and LysoPC concentration were determined at different time points through the course of EAE.

Lp-PLA2 in human plasma [2] = target: T1, Lp-PLA2 in human plasma (Homo sapiens, UniProt Q13093); assay: Lp-PLA2 human plasma assay, Thio-PAF assay (3a); type: biochemical; details: pooled human plasma, Examples 1-137, read-out: pIC50 in the Lp-PLA2 human plasma assay (converted)
T1 construct: from tissue; host or cells: pooled human plasma
T1 sequence (Q13093 22-441): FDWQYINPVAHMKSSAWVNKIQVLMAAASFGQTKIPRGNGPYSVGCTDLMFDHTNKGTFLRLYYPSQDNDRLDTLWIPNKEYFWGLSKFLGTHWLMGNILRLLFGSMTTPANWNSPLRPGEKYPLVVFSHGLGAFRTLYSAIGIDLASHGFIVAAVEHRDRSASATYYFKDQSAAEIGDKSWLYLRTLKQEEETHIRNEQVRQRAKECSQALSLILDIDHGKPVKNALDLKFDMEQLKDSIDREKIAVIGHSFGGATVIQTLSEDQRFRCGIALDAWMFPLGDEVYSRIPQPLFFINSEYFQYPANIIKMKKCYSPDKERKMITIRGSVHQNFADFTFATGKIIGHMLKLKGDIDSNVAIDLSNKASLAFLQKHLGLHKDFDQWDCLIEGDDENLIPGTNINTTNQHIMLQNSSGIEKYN
Description: The human plasma assay utilizes a thioester analog of PAF (phosphatidylcholine), where hydrolysis yields to the formation of a phospholipid containing a free thiol group. The amount of thiol is quantitated continuously by reacting with CPM (7-diethylamino-3-(4′-maleimidylphenyl)-4-methylcoumarin), a maleimide which increases in fluoresence after Michael addition of thiols. This assay may detect the activity of Lp-PLA2 in human plasma, as determined by specific inhibition by Lp-PLA2 inhibitors.
The thio-PAF assay was run as a quenched 15 μL assay. Compounds source plate was prepared by making 1:3 (by volume) serial dilution of the compounds into pure DMSO on 384-well microplate. 0.01 μL of compounds on compound source plate were transferred to 384 well Greiner 784076 (black) low-volume plates by ECHO liquid dispenser. 8 μL pooled human plasma, which was previously aliquoted and frozen, was added. Plates were centrifuged for 10 sec at 500 rpm. After 30 minutes preincubation, 2 μL of substrate solution comprising 2.5 mM 2-thio-PAF [from ethanol stock], 32 μM CPM [from a DMSO stock] and 3.2 mM NEM (N-ethylmaleimide) [made fresh daily in DMSO] in assay buffer of 50 mM HEPES, pH 7.4, 150 mM NaCl, 1 mM CHAPS was added to 384 well Greiner 784076 (black) low-volume plates by BRAVO liquid handling station. […] Plates were read at ex: 380 /em: 485 using Envision microplate reader. […]

[3] = target: T2, recombinant human Lp-PLA2 (Homo sapiens, UniProt Q13093); assay: Recombinant human Lp-PLA2 assay (rhLp-PLA2), PED6 assay; type: biochemical; details: Examples 1-137, read-out: rhLp-PLA2 (pIC50) (converted)
T2 sequence (Q13093 22-441): T1 sequence (Q13093 22-441)
Description: N-((6-(2,4-dinitrophenyl)amino)-hexanoyl)-2-(4,4-difluoro-5,7-dimethyl -4-bora-3a,4a-diaza-s-indacene-3-pentanoyl)-1-hexadecanoyl-sn-glycero-3-phosphoethanolamine, triethylammonium salt (PED6) is a commercially available fluorescently-labeled phospholipid, which is commercially available from Invitrogene and Molecular Probes. There is a quenching para-nitro phenyl (PNP) group in the sn3 position and a Bodipy fluorescein (FL) group in the sn2 position. Upon cleavage with Lp-PLA2, the Bodipy FL group is liberated and then may result in an increase in fluorescence. Inhibitors of Lp-PLA2 therefore prevent this cleavage and no fluorescent increase is observed.
The PED6 assay was run as an unquenched 10 μL assay. The source plate containing the compounds to be tested was prepared by making 1:3 (by volume) serial dilution of the compounds within DMSO on 384-well microplate. Then, 0.01 μL of the compounds on compound source plate were transferred into 384 well Greiner 784076 (black) plates using ECHO liquid dispenser. […] The plates were read for fluorescence intensity at ex: 480/em: 540 using ViewLux microplate imager for Envision spectrofluroimeters pIC50 data, curve and QC analysis was conducted by using XL fit module in Excel.

Lp-PLA2 in human plasma [4] = target: T1, Lp-PLA2 in human plasma; assay: Lp-PLA2 human plasma assay, alternative Thio-PAF assay (3b); type: biochemical; details: pooled human plasma, Example 138, read-out: pIC50 in the Lp-PLA2 human plasma assay (converted)
Method: The human plasma assay utilizes the same thioester analog of PAF as described in (1b) “hr ThioPAF” assay. This assay may detect the activity of Lp-PLA2 in human plasma, as determined by specific inhibition by Lp-PLA2 inhibitors.
The thio-PAF assay was run as a quenched 20 μL assay. Compounds source plate was prepared by making 1:3 (by volume) serial dilution of the compounds into pure DMSO on 96-well microplate. 5 μL of compounds on compound source plate were transferred to 96-well Corning 3686 (black) low-volume plates by STAR+ (Hamilton) liquid dispenser. 10 μL pooled human plasma, which was previously aliquoted and frozen, was added. Plates were centrifuged for 30 sec at 1000 rpm. After 15 minutes preincubation at room temperature, 5 μL of substrate solution comprising 2 mM 2-thio-PAF [from ethanol stock], 52 μM CPM [from a DMSO stock] and 2.5 mM NEM (N-ethylmaleimide) [made fresh daily in DMSO] in assay buffer (50 mM HEPES, pH 7.4, 150 mM NaCl, 1 mM CHAPS) was added to 96-well Corning 3686 (black) low-volume plates. After 3 mins, reaction was quenched with 10 μL of 5% aqueous trifluoroacetic acid (TFA). Plates were centrifuged 30 sec at 1000 rpm, covered to protect from light and incubated for 10 min at room temperature. Plates were read at ex: 380 nm/em: 485 nm using Envision plate reader (Perkin Elmer). […]

[5] = target: T2, recombinant human Lp-PLA2; assay: Recombinant human Lp-PLA2 assay, hrThioPAF assay; type: biochemical; details: Example 138, read-out: rhLp-PLA2 (pIC50) (converted)
Description: 1-O-hexadecyl-2-deoxy-2-thio-S-acetyl-sn-glyceryl-3-phosphorylcholine (2-thio-PAF) is a substrate for PAF-hydrolases (PAF-AH) commercially available from Cayman Chemical. Upon cleavage with PAF-AH, the free thiol is released at the sn-2 position and can then react with 7-diethylamino-3-(4′-maleimidylphenyl)-4-methylcoumarin (CPM) a thiol-reactive coumarin. This reaction (Michael addition) results in an increase in fluorescence. Inhibitors of Lp-PLA2 therefore prevent this cleavage and no fluorescent increase is observed.
The Thio-PAF assay was run as an unquenched 20 μL assay. The source plate containing the compounds to be tested was prepared by making 1:3 (by volume) serial dilution of the compounds within DMSO on 384-well microplate. Then, 5 μL of the compounds on compound source plate were transferred into 384 well Greiner 784076 (black) plates using STAR+ (Hamilton) liquid dispenser. 10 μL of recombinant human Lp-PLA2 enzyme (20 pM rhLp-PLA2 in assay buffer of 50 mM HEPES, pH 7.4, 150 mM NaCl, 1 mM CHAPS) was added to each well of the plate. […] The plates were read for fluorescence intensity at ex: 380 nm/em: 485 nm using Envision plate reader (Perkin Elmer). […]

**Q.** Which results are given for `COc1ccc2c(c1)CCn1c-2cc(Oc2ccc(Oc3cccc(C(F)(F)F)c3)c(C#N)c2)nc1=O` [5-((9-Methoxy-4-oxo-6,7-dihydro-4H-pyrimido[6,1-a]isoquinolin-2-yl)oxy)-2-(3-(trifluoromethyl)phenoxy)benzonitrile]?
**A.** anti-inflammatory (M2) markers expression [1]: increase in M2 markers; proinflammatory (M1) markers expression [1]: decrease in M1 markers; plasma Lp-PLA2 activity (rat EAE model; rat EAE plasma): decreased; plasma LysoPC levels (rat EAE model; rat EAE plasma): decreased; clinical disease (EAE symptoms) (rat EAE model; rats immunized with MBP, compound administered day 0 until day 22): reduction in clinical disease

**Q.** How did the IC50 (Lp-PLA2 in human plasma [2]) turn out when `C[C@H]1Cn2c(cc(OCc3cccc(F)c3F)nc2=O)N1C` [E111, (S)-7-((2,3-difluorobenzyl)oxy)-1,2-dimethyl-2,3-dihydroimidazo[1,2-c]pyrimidin-5(1H)-one] was run?
**A.** > 10000 nM

**Q.** For `CC1(C)Cn2c(cc(OCc3ccc(F)c(F)c3)nc2=O)N1` [E120, 7-((3,4-difluorobenzyl)oxy)-2,2-dimethyl-2,3-dihydroimidazo[1,2-c]pyrimidin-5(1H)-one], which IC50 (Lp-PLA2 in human plasma [2]) is on record?
**A.** > 10000 nM

**Q.** How did the IC50 [3] turn out when `C[C@H]1Cn2c(cc(OCc3cc(F)c(Oc4ccnc(C(F)(F)F)c4)c(F)c3)nc2=O)N1` [E131, (S)-7-((3,5-difluoro-4-((2-(trifluoromethyl)pyridin-4-yl)oxy)benzyl)oxy)-2-methyl-2,3-dihydroimidazo[1,2-c]pyrimidin-5(1H)-one] was run?
**A.** 0.251 nM

**Q.** For `C[C@@H]1Cn2c(cc(OCc3cc(F)c(Oc4ccnc(C(F)(F)F)c4)c(F)c3)nc2=O)N1` [E138, (R)-7-((3,5-difluoro-4-((2-(trifluoromethyl)pyridin-4-yl)oxy)benzyl)oxy)-2-methyl-2,3-dihydroimidazo[1,2-c]pyrimidin-5(1H)-one], which IC50 (Lp-PLA2 in human plasma [4]) is on record?
**A.** ≤ 100 nM

**Q.** What about the IC50 [5] of the same compound?
**A.** 0.794 nM
